In general, IC50 refers to the concentration at which inhibition is half-maximal.

SMILES strings stand for the structures. Like-named read-outs stand apart in the source and are kept apart here. Some results are limits rather than exact numbers.

The values below come from patent publication US12685735B2 (Foghorn Therapeutics Inc., priority 2020, dated 2026).

In one test the target is BRG-1 (Homo sapiens, UniProt P51532). In words: ATPase catalytic activity assay of BRG-1 (ADP-Glo). It is filed as biochemical. The note with it: ATPase catalytic activity, ADP-Glo; for IC50: read-out: BRG1 IC50 (μM)*; for Emax: read-out: BRG1 Max % Inhibition. The protocol:
(§1) The ATPase catalytic activity of BRM or BRG-1 was measured by the in vitro biochemical assay using ADP-Glo™ (Promega, V9102). The ADP-Glo™ kinase assay is performed in two steps once the reaction is complete. The first step is to deplete any unconsumed ATP in the reaction. The second step is to convert the reaction product ADP to ATP, which will be utilized by the luciferase to generate luminesce and be detected by a luminescence reader, such as Envision.
(§2) Then following addition of 5 μL of ADP-Glo™ Reagent provided in the kit, the reaction incubates at room temperature for 40 minutes. Then 10 μL of Kinase Detection Reagent provided in the kit is added to convert ADP to ATP, and the reaction incubates at room temperature for 60 minutes. Finally, luminescence measurement is collected with a plate-reading luminometer, such as Envision.
(§3) The ADP-Glo™ kinase assay is performed in two steps once the reaction is complete. The first step is to deplete any unconsumed ATP in the reaction. The second step is to convert the reaction product ADP to ATP, which will be utilized by the luciferase to generate luminesce and be detected by a luminescence reader, such as Envision.
(ADP-Glo turns the ADP formed in a reaction into a luminescent signal.)

The next test has as its target BRM (Homo sapiens, UniProt P51531). The test can be described thus: ATPase catalytic activity assay of BRM (ADP-Glo). It is filed as biochemical. The note with it: for IC50: read-out: BRM IC50 (μM)*. The protocol: as §1, §2, §3

Sequence of BRG-1 (P51532 whole entry): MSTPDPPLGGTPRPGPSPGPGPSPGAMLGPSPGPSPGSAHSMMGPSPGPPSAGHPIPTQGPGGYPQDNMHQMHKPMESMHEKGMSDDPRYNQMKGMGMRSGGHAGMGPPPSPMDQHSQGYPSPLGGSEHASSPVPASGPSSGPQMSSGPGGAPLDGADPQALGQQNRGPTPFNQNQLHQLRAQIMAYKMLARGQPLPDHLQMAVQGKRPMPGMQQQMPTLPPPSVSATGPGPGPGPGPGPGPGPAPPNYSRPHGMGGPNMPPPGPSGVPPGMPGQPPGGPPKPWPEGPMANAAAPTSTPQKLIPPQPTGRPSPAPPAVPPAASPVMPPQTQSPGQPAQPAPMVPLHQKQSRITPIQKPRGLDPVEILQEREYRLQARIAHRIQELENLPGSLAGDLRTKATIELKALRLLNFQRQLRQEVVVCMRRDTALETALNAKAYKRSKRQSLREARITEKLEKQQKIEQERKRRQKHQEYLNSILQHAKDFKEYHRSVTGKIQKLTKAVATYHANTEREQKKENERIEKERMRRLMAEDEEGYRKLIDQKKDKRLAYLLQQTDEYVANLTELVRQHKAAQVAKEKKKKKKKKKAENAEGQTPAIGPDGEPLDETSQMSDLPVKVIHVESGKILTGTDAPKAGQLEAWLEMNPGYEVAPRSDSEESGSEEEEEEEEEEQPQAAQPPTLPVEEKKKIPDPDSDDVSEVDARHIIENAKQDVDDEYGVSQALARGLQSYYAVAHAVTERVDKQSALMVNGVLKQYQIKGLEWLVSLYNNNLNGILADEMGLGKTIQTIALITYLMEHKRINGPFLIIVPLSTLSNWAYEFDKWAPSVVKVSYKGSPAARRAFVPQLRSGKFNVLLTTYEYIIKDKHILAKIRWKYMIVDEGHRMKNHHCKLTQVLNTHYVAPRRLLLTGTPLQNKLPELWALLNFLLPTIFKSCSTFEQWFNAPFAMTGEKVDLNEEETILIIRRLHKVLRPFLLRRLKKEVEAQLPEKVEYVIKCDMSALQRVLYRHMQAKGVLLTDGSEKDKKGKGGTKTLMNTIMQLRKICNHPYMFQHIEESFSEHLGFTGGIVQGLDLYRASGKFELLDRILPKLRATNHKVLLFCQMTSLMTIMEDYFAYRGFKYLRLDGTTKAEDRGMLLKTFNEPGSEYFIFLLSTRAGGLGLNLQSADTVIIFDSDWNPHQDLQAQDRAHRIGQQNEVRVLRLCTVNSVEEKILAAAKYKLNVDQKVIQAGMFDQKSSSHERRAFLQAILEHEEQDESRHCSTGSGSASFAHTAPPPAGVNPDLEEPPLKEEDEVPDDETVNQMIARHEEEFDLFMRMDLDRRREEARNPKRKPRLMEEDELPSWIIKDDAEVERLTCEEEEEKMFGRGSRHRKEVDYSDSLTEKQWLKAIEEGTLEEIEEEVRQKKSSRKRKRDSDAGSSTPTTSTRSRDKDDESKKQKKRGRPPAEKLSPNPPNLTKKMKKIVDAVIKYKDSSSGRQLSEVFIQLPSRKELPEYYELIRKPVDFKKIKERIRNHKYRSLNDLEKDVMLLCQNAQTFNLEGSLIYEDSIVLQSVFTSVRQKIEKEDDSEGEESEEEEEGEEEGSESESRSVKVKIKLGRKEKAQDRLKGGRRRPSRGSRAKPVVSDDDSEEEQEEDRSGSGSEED
Sequence of BRM (P51531 whole entry): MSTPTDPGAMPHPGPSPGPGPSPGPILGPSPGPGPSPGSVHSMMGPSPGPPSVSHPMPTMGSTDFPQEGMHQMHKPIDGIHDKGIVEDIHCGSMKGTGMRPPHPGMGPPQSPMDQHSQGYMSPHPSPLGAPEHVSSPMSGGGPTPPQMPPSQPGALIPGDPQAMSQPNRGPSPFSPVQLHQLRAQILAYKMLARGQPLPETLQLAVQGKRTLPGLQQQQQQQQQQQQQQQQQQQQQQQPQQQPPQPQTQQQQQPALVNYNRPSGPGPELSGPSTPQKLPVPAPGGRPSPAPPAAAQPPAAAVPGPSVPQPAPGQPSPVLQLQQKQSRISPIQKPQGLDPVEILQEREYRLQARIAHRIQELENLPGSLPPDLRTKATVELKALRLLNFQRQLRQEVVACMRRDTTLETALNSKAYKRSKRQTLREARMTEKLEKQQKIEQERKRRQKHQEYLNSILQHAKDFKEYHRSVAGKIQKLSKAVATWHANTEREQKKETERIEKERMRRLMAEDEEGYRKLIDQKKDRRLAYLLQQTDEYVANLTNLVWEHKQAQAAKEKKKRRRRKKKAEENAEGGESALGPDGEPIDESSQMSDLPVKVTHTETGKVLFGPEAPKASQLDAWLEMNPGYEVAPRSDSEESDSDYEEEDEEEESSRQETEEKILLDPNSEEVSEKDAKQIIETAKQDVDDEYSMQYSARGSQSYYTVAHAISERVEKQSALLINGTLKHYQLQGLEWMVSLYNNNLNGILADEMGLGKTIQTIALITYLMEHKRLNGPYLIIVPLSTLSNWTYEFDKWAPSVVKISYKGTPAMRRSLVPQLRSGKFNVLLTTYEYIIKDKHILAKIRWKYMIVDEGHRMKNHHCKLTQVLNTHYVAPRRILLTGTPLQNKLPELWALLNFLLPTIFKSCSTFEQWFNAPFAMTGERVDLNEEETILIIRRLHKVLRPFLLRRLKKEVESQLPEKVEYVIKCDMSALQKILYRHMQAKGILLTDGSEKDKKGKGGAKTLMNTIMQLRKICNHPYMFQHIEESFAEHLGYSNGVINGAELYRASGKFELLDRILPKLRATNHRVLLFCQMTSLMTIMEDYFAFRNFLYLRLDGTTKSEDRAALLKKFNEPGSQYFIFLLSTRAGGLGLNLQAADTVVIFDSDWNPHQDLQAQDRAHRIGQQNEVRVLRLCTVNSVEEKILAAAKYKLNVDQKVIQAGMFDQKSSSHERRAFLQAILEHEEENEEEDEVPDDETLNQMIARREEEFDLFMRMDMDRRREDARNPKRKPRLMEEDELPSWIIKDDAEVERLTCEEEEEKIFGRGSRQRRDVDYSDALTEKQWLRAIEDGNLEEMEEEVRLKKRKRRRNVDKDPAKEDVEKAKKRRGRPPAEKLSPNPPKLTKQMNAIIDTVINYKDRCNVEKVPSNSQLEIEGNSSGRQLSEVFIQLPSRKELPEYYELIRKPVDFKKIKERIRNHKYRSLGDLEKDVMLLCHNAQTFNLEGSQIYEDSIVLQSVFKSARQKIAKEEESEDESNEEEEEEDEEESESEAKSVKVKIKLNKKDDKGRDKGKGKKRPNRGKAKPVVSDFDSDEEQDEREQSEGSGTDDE

With `C[C@@H]1CN(c2cccc(-c3csc(NC(=O)CNC(=O)c4ccc5c(c4)[C@H](C#N)CCO5)n3)n2)C[C@H](C)O1` (racemic) [Compound 405, rac-4-cyano-N-(2-((4-(6-((cis)-2,6-dimethylmorpholino)pyridin-2-yl)thiazol-2-yl)amino)-2-oxoethyl)chromane-6-carboxamide], at BRG-1, the IC50 lay within 1 to 5 µM and the Emax was over 90%. In addition, on BRM, the “BRM Max % Inhibition” value is over 90% and the 50% inhibitory concentration (IC50) is 0.1 to 1 µM.
Take `C[C@@H]1CN(c2cccc(-c3csc(NC(=O)CNC(=O)c4cccc([C@H]5COC[C@H]5O)c4)n3)c2)C[C@H](C)O1` (relative stereo) [Compound 424, N-(2-((4-(3-((cis)-2,6-dimethylmorpholino)phenyl)thiazol-2-yl)amino)-2-oxoethyl)-3-((cis)-4-hydroxytetrahydrofuran-3-yl)benzamide]: on BRG-1 (30 nM BRG-1, 400 μM ATP), the IC50 was over 5 µM and the Emax is over 80%. In addition, on BRM (30 nM BRM, 400 μM ATP), the “BRM Max % Inhibition” value is over 80% and the IC50 was 0.1 to 1 µM.
As to `CCC(C)(O)c1cccc(C(=O)NCC(=O)Nc2nc(-c3cccc(-c4ccncc4)c3)cs2)c1` (single isomer, unassigned) [Compound 80], on BRG-1, the half-maximal inhibitory concentration (IC50) is 0.1 to 1 µM and the Emax was over 80%. On BRM, the “BRM Max % Inhibition” value is listed as over 90% and the IC50 fell in the range of 1 to 5 µM.
With `CCC(C)(O)c1cccc(C(=O)NCC(=O)Nc2nc(-c3cccc(-c4ccncc4)c3)cs2)c1` (single isomer, unassigned) [Compound 81], at BRG-1, the “BRG1 Max % Inhibition” value was over 70% and the half-inhibitory concentration (IC50) was in the range of 0.1 to 1 µM. On BRM, the “BRM Max % Inhibition” value was over 90% and the concentration for half-maximal inhibition (IC50) fell in the range of 0.1 to 1 µM.
Consider `CC1(C#N)CCc2ccc(C(=O)NCC(=O)Nc3nc(-c4cccc(-c5ccncc5)c4)cs3)cc21` (single isomer, unassigned) [Compound 88], for which, at BRG-1, the “BRG1 Max % Inhibition” value is on record as over 30% and the IC50 is over 5 µM. On BRM, the “BRM Max % Inhibition” value is recorded as over 50% and the IC50 is 0.1 to 1 µM.
As for `CC1(C#N)CCc2ccc(C(=O)NCC(=O)Nc3nc(-c4cccc(-c5ccncc5)c4)cs3)cc21` (single isomer, unassigned) [Compound 103], on BRG-1, the “BRG1 Max % Inhibition” value was over 95% and the half-inhibitory concentration (IC50) was under 0.1 µM. In addition, on BRM, the “BRM Max % Inhibition” value is reported as over 95% and the IC50 is under 0.1 µM.
Take `CC1(CO)CCc2ccc(C(=O)NCC(=O)Nc3nc(-c4cccc(-c5ccncc5)c4)cs3)cc21` (single isomer, unassigned) [Compound 105]: at BRG-1, the IC50 was under 0.1 µM and the Emax is over 90%. At BRM, the “BRM Max % Inhibition” value is over 95% and the IC50 was under 0.1 µM.
Consider `CC1(CO)CCc2ccc(C(=O)NCC(=O)Nc3nc(-c4cccc(-c5ccncc5)c4)cs3)cc21` (single isomer, unassigned) [Compound 107], for which, at BRG-1, the “BRG1 Max % Inhibition” value is reported as over 70% and the concentration for half-maximal inhibition (IC50) was in the range of 0.1 to 1 µM. Besides, on BRM, the “BRM Max % Inhibition” value is reported as over 90% and the IC50 lay in the range of 0.1 to 1 µM.
On to `C[C@@H]1CN(c2cccc(-c3csc(NC(=O)CNC(=O)c4ccc5c(c4)[C@](C)(CO)CO5)n3)n2)C[C@H](C)O1` (single isomer, unassigned) [Compound 132], for which, at BRG-1, the IC50 is over 5 µM and the Emax is over 50%. On BRM, the “BRM Max % Inhibition” value is reported as over 80% and the IC50 lay within 0.1 to 1 µM.
`C[C@@H]1CN(c2cccc(-c3csc(NC(=O)CNC(=O)c4ccc5c(c4)[C@@](C)(CO)CO5)n3)n2)C[C@H](C)O1` (single isomer, unassigned) [Compound 133]: on BRG-1, the IC50 is 1 to 5 µM and the Emax is over 70%. In addition, on BRM, the “BRM Max % Inhibition” value was over 95% and the IC50 lay within 0.1 to 1 µM.
Regarding `C[C@@H]1CN(c2cccc(-c3csc(NC(=O)CNC(=O)c4ccc5c(c4)[C@](F)(C#N)COC5)n3)n2)C[C@H](C)O1` (single isomer, unassigned) [Compound 298], on BRG-1, the IC50 is 1 to 5 µM and the Emax was over 95%. In addition, on BRM, the “BRM Max % Inhibition” value is listed as over 95% and the IC50 lay in the range of 0.1 to 1 µM.
